Assay results: ChEMBL document CHEMBL1201862, “PubChem BioAssay data set” (2004)
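All cell lines were grown in 96-well plates and treated with compound for 48 hours. GI50 = concentration required for 50% inhibition of growth.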 Active and inactive are the calls of the source. Cut-off read from the data, not from the text of the source: active = GI50 up to about 1.1 µM and inactive = higher.

Key:
Assay in all cases: inhibition of tumour cell growth, NCI panel, 48 h
CCRF-CEM = tested on: CCRF-CEM
KM12 = tested on: KM12
SN12C = tested on: SN12C
HCC 2998 = tested on: HCC 2998
NCI-H460 = tested on: NCI-H460
UO-31 = tested on: UO-31
SK-OV-3 = tested on: SK-OV-3
UACC-257 = tested on: UACC-257
U-251 = tested on: U-251
OVCAR-8 = tested on: OVCAR-8
RXF 393 = tested on: RXF 393
A549 = tested on: A549
HT-29 = tested on: HT-29
HCT-116 = tested on: HCT-116
SK-MEL-28 = tested on: SK-MEL-28
HL-60 = tested on: HL-60
NCI-H23 = tested on: NCI-H23

Measured: GI50

O=c1cc(O)cc2n1CCC2
inactive: CCRF-CEM > 100 µM | KM12 > 100 µM | SN12C > 100 µM | HCC 2998 > 100 µM | NCI-H460 > 100 µM | UO-31 > 100 µM | SK-OV-3 > 100 µM | UACC-257 > 100 µM | U-251 > 100 µM | OVCAR-8 > 100 µM | RXF 393 > 100 µM | A549 > 100 µM | HT-29 > 100 µM | HCT-116 > 100 µM

Cc1ccnc(NS(=O)(=O)c2ccc(NC3=CC(=O)C(=O)c4ccccc43)cc2)n1
inactive: CCRF-CEM > 100 µM | KM12 > 100 µM | SN12C > 100 µM | HCC 2998 > 100 µM | NCI-H460 > 100 µM | SK-MEL-28 > 100 µM | UO-31 > 100 µM | HL-60 > 100 µM | SK-OV-3 > 100 µM | UACC-257 > 100 µM | U-251 > 100 µM | NCI-H23 > 100 µM | OVCAR-8 > 100 µM | RXF 393 > 100 µM | A549 > 100 µM | HT-29 > 100 µM | HCT-116 > 100 µM

CC(C)(C)C1CCC(=O)C(C(O)CC2CC(=O)N(c3ccccc3)C(=O)C2)C1 (configuration not stated)
inactive: CCRF-CEM 53.1 µM | KM12 > 100 µM | SN12C > 100 µM | HCC 2998 > 100 µM | NCI-H460 > 100 µM | SK-MEL-28 > 100 µM | UO-31 > 100 µM | HL-60 > 100 µM | SK-OV-3 > 100 µM | UACC-257 > 100 µM | U-251 80.2 µM | NCI-H23 > 100 µM | OVCAR-8 > 100 µM | RXF 393 > 100 µM | A549 > 100 µM | HT-29 > 100 µM | HCT-116 > 100 µM

FC(F)(F)c1ccc(/C=N/C23CC4CC(CC(C4)C2)C3)cc1
inactive: CCRF-CEM > 100 µM | KM12 > 100 µM | SN12C > 100 µM | HCC 2998 > 100 µM | NCI-H460 > 100 µM | SK-MEL-28 > 100 µM | UO-31 > 100 µM | HL-60 > 100 µM | SK-OV-3 > 100 µM | UACC-257 > 100 µM | U-251 > 100 µM | NCI-H23 > 100 µM | OVCAR-8 > 100 µM | RXF 393 > 100 µM | A549 > 100 µM | HT-29 > 100 µM | HCT-116 > 100 µM

CCOC(=O)C(=O)Nc1cccc(Cl)c1C
inactive: CCRF-CEM > 100 µM | KM12 > 100 µM | SN12C > 100 µM | HCC 2998 > 100 µM | NCI-H460 > 100 µM | SK-MEL-28 > 100 µM | UO-31 > 100 µM | HL-60 > 100 µM | SK-OV-3 > 100 µM | UACC-257 > 100 µM | U-251 > 100 µM | NCI-H23 > 100 µM | OVCAR-8 > 100 µM | RXF 393 > 100 µM | A549 > 100 µM | HT-29 > 100 µM | HCT-116 > 100 µM

CCCCNC(=O)NNC(=O)c1cc(/C=C/c2cccc([N+](=O)[O-])c2)ncn1
inactive: CCRF-CEM > 100 µM | KM12 > 100 µM | SN12C > 100 µM | HCC 2998 > 100 µM | NCI-H460 > 100 µM | SK-MEL-28 > 100 µM | UO-31 > 100 µM | HL-60 > 100 µM | SK-OV-3 > 100 µM | UACC-257 > 100 µM | U-251 21.1 µM | NCI-H23 > 100 µM | OVCAR-8 > 100 µM | RXF 393 > 100 µM | A549 > 100 µM | HT-29 > 100 µM | HCT-116 20 µM

CCN1N=CSC12C(=O)N(c1ccccc1)C(=O)N2c1ccccc1 (configuration not stated)
inactive: CCRF-CEM > 100 µM | KM12 > 100 µM | SN12C > 100 µM | HCC 2998 > 100 µM | NCI-H460 > 100 µM | SK-MEL-28 > 100 µM | UO-31 > 100 µM | HL-60 80.5 µM | SK-OV-3 > 100 µM | UACC-257 > 100 µM | U-251 > 100 µM | NCI-H23 > 100 µM | OVCAR-8 > 100 µM | RXF 393 > 100 µM | A549 > 100 µM | HT-29 > 100 µM | HCT-116 > 100 µM

O=c1cc(-c2ccccc2)c2cc3c(=O)ccoc3cc2o1
inactive: CCRF-CEM 48.1 µM | SN12C > 100 µM | HCC 2998 > 100 µM | NCI-H460 > 100 µM | SK-MEL-28 > 100 µM | UO-31 > 100 µM | HL-60 > 100 µM | UACC-257 > 100 µM | U-251 > 100 µM | NCI-H23 > 100 µM | OVCAR-8 > 100 µM | RXF 393 20 µM | A549 > 100 µM | HT-29 > 100 µM | HCT-116 > 100 µM

COc1ccc(S(=O)(=O)N(CC(=O)O)c2ccccc2)cc1
inactive: CCRF-CEM > 100 µM | KM12 > 100 µM | SN12C > 100 µM | HCC 2998 > 100 µM | NCI-H460 > 100 µM | SK-MEL-28 > 100 µM | UO-31 > 100 µM | HL-60 > 100 µM | SK-OV-3 > 100 µM | UACC-257 > 100 µM | U-251 > 100 µM | NCI-H23 > 100 µM | OVCAR-8 > 100 µM | RXF 393 > 100 µM | A549 > 100 µM | HT-29 > 100 µM

Cc1ccccc1C(=O)Oc1ccc(O)cc1
inactive: CCRF-CEM > 100 µM | KM12 > 100 µM | SN12C > 100 µM | HCC 2998 > 100 µM | NCI-H460 > 100 µM | UO-31 > 100 µM | HL-60 > 100 µM | SK-OV-3 > 100 µM | UACC-257 > 100 µM | U-251 > 100 µM | NCI-H23 > 100 µM | OVCAR-8 > 100 µM | RXF 393 > 100 µM | A549 > 100 µM | HT-29 > 100 µM | HCT-116 > 100 µM

C[Si](C)(C)OC1(C#N)C2C3CC4C2C(=O)C2C4C3C21 (configuration not stated)
inactive: CCRF-CEM > 100 µM | KM12 > 100 µM | SN12C > 100 µM | HCC 2998 > 100 µM | NCI-H460 > 100 µM | SK-MEL-28 > 100 µM | UO-31 > 100 µM | HL-60 > 100 µM | SK-OV-3 > 100 µM | UACC-257 > 100 µM | U-251 > 100 µM | OVCAR-8 > 100 µM | RXF 393 > 100 µM | A549 > 100 µM | HCT-116 > 100 µM

COC(=O)/C(=N\NC(N)=O)C(C(=O)C(=O)Nc1ccccc1C(=O)OC)c1nc2ccc(C(=O)c3ccccc3)cc2nc1O (configuration not stated)
inactive: CCRF-CEM > 100 µM | KM12 > 100 µM | SN12C > 100 µM | HCC 2998 > 100 µM | NCI-H460 > 100 µM | SK-MEL-28 > 100 µM | UO-31 > 100 µM | HL-60 > 100 µM | SK-OV-3 > 100 µM | UACC-257 > 100 µM | U-251 > 100 µM | NCI-H23 > 100 µM | OVCAR-8 > 100 µM | A549 > 100 µM | HT-29 > 100 µM | HCT-116 > 100 µM

CCN(CC)CCNC(=O)c1ccccc1NC(=O)C(=O)Nc1ccccc1C(=O)NCCN(CC)CC
inactive: CCRF-CEM 30.3 µM | KM12 45.6 µM | SN12C 60.5 µM | HCC 2998 32.5 µM | NCI-H460 75 µM | SK-MEL-28 45.4 µM | UO-31 > 100 µM | HL-60 15.2 µM | SK-OV-3 > 100 µM | UACC-257 18.6 µM | U-251 44.6 µM | NCI-H23 > 100 µM | OVCAR-8 > 100 µM | A549 > 100 µM | HT-29 34.6 µM | HCT-116 17.5 µM

O=C1C2C3CC4C5C3C1C5C1(SCCS1)C42 (configuration not stated)
inactive: CCRF-CEM > 100 µM | KM12 > 100 µM | SN12C > 100 µM | HCC 2998 > 100 µM | NCI-H460 > 100 µM | SK-MEL-28 > 100 µM | UO-31 > 100 µM | HL-60 > 100 µM | SK-OV-3 > 100 µM | UACC-257 > 100 µM | U-251 > 100 µM | OVCAR-8 > 100 µM | RXF 393 > 100 µM | A549 > 100 µM | HCT-116 > 100 µM

O=C(N/N=C/c1cccc(O)c1O)N/N=C/c1cccc(O)c1O
inactive: CCRF-CEM 3.5 µM | KM12 26.5 µM | SN12C 21.8 µM | NCI-H460 30.1 µM | SK-MEL-28 20.1 µM | UO-31 6.52 µM | SK-OV-3 > 100 µM | UACC-257 19.9 µM | U-251 12.3 µM | NCI-H23 25.2 µM | OVCAR-8 16.6 µM | RXF 393 19 µM | A549 35.9 µM | HT-29 44.8 µM | HCT-116 5.02 µM

CN(C)CC/C(=N\Nc1ccccc1)c1ccccc1
inactive: KM12 1.57 µM | HCC 2998 12.2 µM | SK-MEL-28 > 10 µM | UO-31 6.85 µM | SK-OV-3 15.3 µM | U-251 27.4 µM | NCI-H23 23 µM | OVCAR-8 4.35 µM | RXF 393 31.2 µM | A549 45 µM | HT-29 2.13 µM | HCT-116 12.2 µM

COc1ccc(C2Cc3cc(OC)c(OC)c(OC)c3C2=O)cc1 (configuration not stated)
inactive: CCRF-CEM > 100 µM | KM12 > 100 µM | SN12C > 100 µM | HCC 2998 > 100 µM | NCI-H460 > 100 µM | SK-MEL-28 > 100 µM | UO-31 41.8 µM | SK-OV-3 > 100 µM | UACC-257 > 100 µM | U-251 > 100 µM | NCI-H23 87.9 µM | OVCAR-8 > 100 µM | A549 > 100 µM | HT-29 > 100 µM | HCT-116 > 100 µM
